{"source": "patent US9844560B2", "about": "“Use of ginsenoside M1 for treating lupus nephritis” (priority 2014, dated 2017)", "type_in_all_cases": "in vivo, NZB/W F1 mice", "key": {"T cells in splenocytes": {"tested_on": "T cells in splenocytes", "test": "T cell proliferation in splenocytes of ASLN mice (3H-methyl thymidine)", "settings": "anti-CD3 stimulated splenocytes, vs ASLN group, p<0.01, FIG. 6", "procedure": "(§1) An accelerated severe lupus nephritis (ASLN) mouse model was established in 8-week-old female NZB/W F1 mice by twice weekly intraperitoneal injection of lipopolysaccharide (LPS, 20 mg/kg body weight) (Sigma, NO, USA) as described in Shui et al., 2007 [51]. Two days after first dose of LPS for the ASLN induction, the mice were divided into two groups of more than 6 mice each and daily administrated with ginsenoside M1 or vehicle (normal saline) via oral gavage till mice sacrificed. 8-Week-old NZB/W F1 female mice (prior to onset of autoantibody production), injected with normal saline, were used as normal controls. All mice were killed at week 5 after disease induction. The tissue specimens of spleen, renal cortical tissue, blood, and urine were collected at the indicated times and stored appropriately before analysis.\nSplenocytes from the mice were prepared as described previously, then were cultured in triplicate in wells (2.5×10^5 cells/well) in 96-well flat-bottom microtiter plates previously coated overnight at 4° C. with 0.25 μg/ml anti-mouse CD3 (145-2C11) antibodies (BD Biosciences). After 48 h, the cultures were pulsed with […] of ^3H-methyl thymidine (Amersham Pharmacia Biotech, Piscataway, N.J.) and harvested 16-18 h later, and the incorporated ^3H-methyl thymidine was measured using a Top Count (Packard, PerkinElmer, Boston, Mass.) as described previously."}, "anti-dsDNA antibodies": {"tested_on": "anti-dsDNA antibodies", "test": "Serum anti-dsDNA antibodies (ELISA) in ASLN mice", "settings": "vs ASLN group, p<0.01, FIG. 3", "procedure": "as §1\nSerum levels of anti-dsDNA antibodies were measured using an anti-mouse dsDNA enzyme-linked immunosorbent assay (ELISA) kit (Alpha Diagnostic, TX, USA) according to the manufacturer's instructions. The absorbance at 450 nm was measured using an ELISA plate reader (Bio-Tek, VT, USA)."}, "[1]": {"tested_on": "accelerated severe lupus nephritis (ASLN) mouse model", "test": "Urine protein, hematuria and renal function in ASLN mouse model", "procedure": "as §1, with “analysis. Urine samples were collected in metabolic cages every week and urine protein levels were measured, and serum samples were collected to measure serum levels of blood urea nitrogen (BUN) and creatinine (Cr) as described previously (Ka, S. M. et al. Decoy receptor 3 ameliorates an autoimmune crescentic glomerulonephritis model in mice. J Am Soc Nephrol 18:2473-2485; 2007).” for “analysis.”"}, "[2]": {"tested_on": "Toll-like receptor (TLR)7 gene expression", "test": "Real-time RT-PCR of renal cortex TLR7 mRNA in ASLN mice", "settings": "normalized to GAPDH, vs ASLN group, p<0.01, FIG. 7", "procedure": "as §1\nRenal cortex RNA was extracted using TRIzol reagent (Invitrogen) according to the manufacturer's instructions, and real-time reverse transcription-polymerase chain reaction (RT-PCR) was used to measure Toll-like receptor (TLR)7 gene expression. Real-time quantification was performed using a Bio-Rad iCycler iQ system according to the manufacturer's instructions. Amplifications were normalized to the values for GAPDH using the 2^−ΔCt method."}, "renal ROS production": {"tested_on": "renal ROS production", "test": "Reactive oxygen species (superoxide anion, DHE labeling) in kidney of ASLN mice", "procedure": "as §1\nKidney in situ superoxide anion production was determined by dihydroethidium (DHE) labeling. Fluorescent images were quantified by counting the percentage of positive nuclei in the total nuclei per kidney cross-section. Superoxide anion levels in serum and kidney tissues were measured as described previously and the results expressed as reactive luminescence units (RLU) per 15 min per milligram dry weight (i.e., RLU/15 min/mg dry weight)."}, "[3]": {"tested_on": "serum inflammatory cytokines", "test": "Serum cytokine detection (Cytometric Bead Array) in ASLN mice", "settings": "vs ASLN group", "procedure": "as §1\nTo detect the level of IFN-γ, MCP-1, IL-12 p70, IL-6, TNF-α and IL-10 in serum by using BD Cytometric Bead Array Mouse Inflammation kit (BD Biosciences), according to the standard protocol, followed by flow cytometry (BD Biosciences)."}, "[4]": {"tested_on": "accelerated severe lupus nephritis (ASLN) mouse model", "test": "Renal histopathology (H&E) in ASLN mouse model", "settings": "ASLN mice, H&E light microscopy, FIG. 2", "procedure": "as §1, with “The tissue specimens of spleen, renal cortical tissue, blood, and urine were collected at the indicated times and stored appropriately before analysis.” left out\nRenal tissues were formalin-fixed, embedded in paraffin, and sections (3 μm) prepared and stained with hematoxylin and eosin (H&E) for renal histopathology as described previously. Quantitative analysis was performed by optical microscopy (Olympus BX51, Reflected Fluorescence System, Japan). The examination of renal pathology and scoring were performed in a blinded manner by a pathologist, and the severity of renal lesions was scored. The percentage of glomeruli showing proliferation, neutrophil infiltration, crescent formation, fibrinoid necrosis, and periglomerular inflammation was calculated from at least 100 randomly sampled glomeruli."}}}
{"compound": "CC(C)=CCC[C@](C)(O[C@@H]1OC(CO)[C@@H](O)[C@@H](O)C1O)[C@H]1CC[C@]2(C)C1[C@H](O)CC1[C@@]3(C)CC[C@H](O)C(C)(C)C3CC[C@]12C", "note": "(stereo partly drawn) [ginsenoside M1, 20-O-β-D-glucopyranosyl-20(S)-protopanaxadiol]", "values": [{"measurement": "proliferation of T cells in splenocytes", "setting": "T cells in splenocytes", "value": "significant decreased"}, {"measurement": "serum anti-dsDNA antibody level", "setting": "anti-dsDNA antibodies", "value": "significantly decreased"}, {"measurement": "serum level of BUN", "setting": "[1]; ASLN mice, daily oral gavage, vs ASLN group, p<0.05, FIG. 1C", "value": "significantly decreased"}, {"measurement": "serum level of creatinine", "setting": "[1]; ASLN mice, daily oral gavage, vs ASLN group, p<0.05, FIG. 1D", "value": "significantly decreased"}, {"measurement": "proteinuria (urine albumin/creatinine ratio)", "setting": "[1]; ASLN mice, daily oral gavage, vs ASLN group, FIG. 1A", "value": "significantly decreased"}, {"measurement": "hematuria", "setting": "[1]; ASLN mice, daily oral gavage, vs ASLN group, FIG. 1B", "value": "significantly decreased"}, {"measurement": "development of lupus nephritis (overall conclusion)", "setting": "[1]; summary of the ASLN mouse study", "value": "effective in preventing development of lupus nephritis"}, {"measurement": "renal mRNA levels of TLR7", "setting": "[2]", "value": "significantly decreased"}, {"measurement": "renal ROS production (superoxide anion levels in renal tissues)", "setting": "renal ROS production; vs ASLN group, p<0.01, FIG. 4A", "value": "significantly decreased"}, {"measurement": "DHE fluorescence intensity (in situ ROS production in kidney)", "setting": "renal ROS production; week 3, FIGS. 4B and 4C", "value": "very low"}, {"measurement": "DHE fluorescence intensity (in situ ROS production in kidney)", "setting": "renal ROS production; week 5, FIGS. 4B and 4C", "value": "very low"}, {"measurement": "serum MCP-1", "setting": "[3]; p<0.005, FIG. 5B", "value": "significantly decreased"}, {"measurement": "serum IL-12 p70", "setting": "[3]; p<0.005, FIG. 5C", "value": "significantly decreased"}, {"measurement": "serum IL-6", "setting": "[3]; p<0.005, FIG. 5D", "value": "significantly decreased"}, {"measurement": "serum TNFα", "setting": "[3]; p<0.005, FIG. 5E", "value": "significantly decreased"}, {"measurement": "serum IL-10", "setting": "[3]; p<0.005, FIG. 5F", "value": "significantly decreased"}, {"measurement": "serum IFN-γ", "setting": "[3]; p<0.01, FIG. 5A", "value": "significant decreased"}, {"measurement": "renal lesions (neutrocyte infiltration, crescent-like formation, periglomerular inflammation, tubular atrophy, proteinaceous casts, fibrinoid necrosis)", "setting": "[4]; vs ASLN+vehicle, all p<0.005", "value": "greatly decreased"}, {"measurement": "glomerular proliferation", "setting": "[4]", "value": "mild glomerular proliferation was present"}]}
